Read-outs that look alike come from different tables or passages of the source.
Assay: Potentiometric titration, first pKa
Type: physicochemical
Method: In order to investigate the relationship between coating pH and deprotonation, coating precursor molecules were studied via potentiometric titrations. A solution of tannic acid was made by dissolving ˜1 mg in 2 mL of 100 mM KCl in a glass test tube to perform the titration. The TA and KOH solutions were degassed by aggressively sparging argon for no less than 30 min. Base was titrated in 1.0 μL increments, and the total amount added was 250 μL. If oxygen is purged correctly, the phenolic solution should display little or no change in color throughout the titration. The first pKa was calculated by initially plotting the volume of base added versus pH. The first derivative of this curve was then plotted as a function of pH, and the pKa was calculated by determining the pH associated with any local maxima.

[1] = aqueous 100 mM KCl solution, 100 mM KCl, degassed, KOH titration, read-out: First pKa
[2] = first pKa minus optimal coating pH

| Molecule | pKa [1] | pKa − pH [2] | pKa | pKa − pH | First pKa (100 mM KCl, degassed, KOH titration) |
| --- | --- | --- | --- | --- | --- |
| Oc1ccccc1O [Catechol, catechol] | 9.5 | 1.5 |  |  |  |
| Oc1ccc(O)c(O)c1 [HHQ, hydroxyhydroquinone] |  |  | 9.1 | 3.1 |  |
| epigallocatechin-3-gallate [EGCG] |  | 1.1 |  |  | 8.1 |

The remaining lines, values ahead:

| pKa [1] | pKa − pH [2] | pKa | pKa − pH | First pKa (100 mM KCl, degassed, KOH titration) | Molecule |
| --- | --- | --- | --- | --- | --- |
| 9.3 |  |  | 2.3 |  | Oc1cccc(O)c1O [PG, 1,2,3-trihydroxybenzene] |
|  |  | 7.7 | 0.7 |  | O=C(OC[C@H]1O[C@@H](OC(=O)c2cc(O)c(O)c(OC(=O)c3cc(O)c(O)c(O)c3)c2)[C@H](OC(=O)c2cc(O)c(O)c(OC(=O)c3cc(O)c(O)c(O)c3)c2)[C@@H](OC(=O)c2cc(O)c(O)c(OC(=O)c3cc(O)c(O)c(O)c3)c2)[C@@H]1OC(=O)c1cc(O)c(O)c(OC(=O)c2cc(O)c(O)c(O)c2)c1)c1cc(O)c(O)c(OC(=O)c2cc(O)c(O)c(O)c2)c1 [Tannic acid, tannic acid] |
